Measurements as given in ChEMBL document CHEMBL1909046, “DrugMatrix in vitro pharmacology data”.

Legend:
Cytochrome P450 1A2 = biological target: T1, Cytochrome P450 1A2 (Homo sapiens, UniProt P05177); details: bti-tn-5b1-4; further: in other assays of this panel Not Active means under 50% inhibition at 10 µM
T1 sequence (P05177 whole entry): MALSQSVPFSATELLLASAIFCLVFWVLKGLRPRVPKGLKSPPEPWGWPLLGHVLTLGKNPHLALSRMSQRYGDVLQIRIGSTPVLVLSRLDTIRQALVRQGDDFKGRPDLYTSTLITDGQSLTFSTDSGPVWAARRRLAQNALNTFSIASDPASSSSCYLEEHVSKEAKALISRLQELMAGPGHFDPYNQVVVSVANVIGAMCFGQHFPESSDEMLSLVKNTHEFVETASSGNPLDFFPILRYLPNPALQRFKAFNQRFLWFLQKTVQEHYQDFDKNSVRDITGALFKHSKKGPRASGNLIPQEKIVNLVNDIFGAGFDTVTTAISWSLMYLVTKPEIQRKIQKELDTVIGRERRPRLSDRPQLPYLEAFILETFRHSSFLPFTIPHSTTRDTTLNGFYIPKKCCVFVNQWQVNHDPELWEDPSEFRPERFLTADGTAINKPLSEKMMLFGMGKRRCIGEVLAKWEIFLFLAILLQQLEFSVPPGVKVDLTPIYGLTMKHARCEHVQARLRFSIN

[1] = biological target: Platelet-activating factor receptor (Homo sapiens, UniProt P25105); format: tissue-based; further: in other assays of this panel Not Active means under 50% inhibition at 10 µM
Platelet-activating factor receptor, sequence (P25105 whole entry): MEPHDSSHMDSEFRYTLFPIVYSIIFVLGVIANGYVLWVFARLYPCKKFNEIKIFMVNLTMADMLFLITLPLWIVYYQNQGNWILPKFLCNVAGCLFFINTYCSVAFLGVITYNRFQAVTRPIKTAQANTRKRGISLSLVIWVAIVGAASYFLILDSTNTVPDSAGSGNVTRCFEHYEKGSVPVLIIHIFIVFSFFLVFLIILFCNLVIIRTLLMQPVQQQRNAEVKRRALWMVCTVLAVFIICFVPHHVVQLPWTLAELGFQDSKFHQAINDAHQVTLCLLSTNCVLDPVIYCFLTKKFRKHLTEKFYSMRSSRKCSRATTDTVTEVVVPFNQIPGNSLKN

[2] = biological target: Sigma non-opioid intracellular receptor 1 (Homo sapiens, UniProt Q99720); assay: DRUGMATRIX: Sigma1 radioligand binding (ligand: [3H] Haloperidol); format: cell membranes, Jurkat, Membrane; details: Not Active = under 50% inhibition at 10 µM
Sigma non-opioid intracellular receptor 1, sequence (Q99720 whole entry): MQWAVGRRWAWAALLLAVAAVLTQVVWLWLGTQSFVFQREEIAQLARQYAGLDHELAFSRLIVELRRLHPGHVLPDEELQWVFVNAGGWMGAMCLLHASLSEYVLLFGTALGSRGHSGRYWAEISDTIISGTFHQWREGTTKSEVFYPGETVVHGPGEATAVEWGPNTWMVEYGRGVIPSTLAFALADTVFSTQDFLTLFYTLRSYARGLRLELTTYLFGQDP

[3] = biological target: Protein kinase C alpha type (Homo sapiens, UniProt P17252); format: cell-based; details: sf9;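 further: inhibition of PKCalpha kinase activity measured in an enzyme assay with histone as the phosphorylation substrate; in other assays of this panel Not Active means under 50% inhibition at 10 µM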
[4] = biological target: T2, Cholecystokinin receptor type A (Homo sapiens, UniProt P32238); format: cell membranes, Membrane; details: 1321-n1; further: in other assays of this panel Not Active means under 50% inhibition at 10 µM
T2 sequence (P32238 whole entry): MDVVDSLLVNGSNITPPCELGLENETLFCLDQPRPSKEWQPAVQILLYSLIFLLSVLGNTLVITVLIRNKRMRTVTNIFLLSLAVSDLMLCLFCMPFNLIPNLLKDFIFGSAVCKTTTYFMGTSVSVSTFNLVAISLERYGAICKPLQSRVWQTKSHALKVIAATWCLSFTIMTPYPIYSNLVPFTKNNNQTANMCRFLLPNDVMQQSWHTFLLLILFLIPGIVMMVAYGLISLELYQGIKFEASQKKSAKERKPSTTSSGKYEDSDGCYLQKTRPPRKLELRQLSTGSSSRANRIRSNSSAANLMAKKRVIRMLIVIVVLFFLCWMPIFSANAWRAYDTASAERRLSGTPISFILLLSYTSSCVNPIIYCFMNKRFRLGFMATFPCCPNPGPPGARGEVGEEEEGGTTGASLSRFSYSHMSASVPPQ

Cytochrome P450 2E1 = Cytochrome P450 2E1 (Homo sapiens, UniProt P05181); details: bti-tn-5b1-4; further: in other assays of this panel Not Active means under 50% inhibition at 10 µM
Cytochrome P450 2E1, sequence (P05181 whole entry): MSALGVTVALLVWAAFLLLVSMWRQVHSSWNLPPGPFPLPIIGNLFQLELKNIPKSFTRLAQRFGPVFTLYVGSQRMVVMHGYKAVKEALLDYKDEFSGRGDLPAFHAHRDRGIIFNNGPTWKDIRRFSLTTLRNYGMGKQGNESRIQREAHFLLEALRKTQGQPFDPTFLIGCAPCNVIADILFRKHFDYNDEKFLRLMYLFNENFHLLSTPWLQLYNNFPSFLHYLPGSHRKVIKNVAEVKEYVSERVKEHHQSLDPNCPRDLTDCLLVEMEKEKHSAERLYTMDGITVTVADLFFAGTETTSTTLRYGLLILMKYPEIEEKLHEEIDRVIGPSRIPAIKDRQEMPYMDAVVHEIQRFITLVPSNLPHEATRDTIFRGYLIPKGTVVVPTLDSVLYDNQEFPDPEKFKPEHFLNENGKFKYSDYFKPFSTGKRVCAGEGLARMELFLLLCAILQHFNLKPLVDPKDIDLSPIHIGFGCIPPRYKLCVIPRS

D(4) dopamine receptor = biological target: T3, D(4) dopamine receptor (Homo sapiens, UniProt P21917); assay: DRUGMATRIX: Dopamine D4.2 radioligand binding (ligand: [3H] Spiperone); format: cell membranes, CHO-K1, Membrane; details: cho-k1; Not Active = under 50% inhibition at 10 µM
T3 sequence (P21917 whole entry): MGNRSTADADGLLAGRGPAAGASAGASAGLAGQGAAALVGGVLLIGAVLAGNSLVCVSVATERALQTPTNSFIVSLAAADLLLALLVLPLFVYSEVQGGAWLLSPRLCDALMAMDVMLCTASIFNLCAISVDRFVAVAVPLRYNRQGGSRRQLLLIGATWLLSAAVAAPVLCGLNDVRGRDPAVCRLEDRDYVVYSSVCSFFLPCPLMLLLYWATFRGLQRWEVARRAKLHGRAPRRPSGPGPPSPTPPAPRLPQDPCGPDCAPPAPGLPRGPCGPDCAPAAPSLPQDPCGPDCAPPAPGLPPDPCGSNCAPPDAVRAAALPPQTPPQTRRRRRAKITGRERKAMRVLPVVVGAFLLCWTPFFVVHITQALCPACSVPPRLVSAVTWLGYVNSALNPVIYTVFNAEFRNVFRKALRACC

Melanocortin receptor 3 = Melanocortin receptor 3 (Homo sapiens, UniProt P41968); format: cell membranes, Membrane; details: hek293; further: in other assays of this panel Not Active means under 50% inhibition at 10 µM
Melanocortin receptor 3, sequence (P41968 whole entry): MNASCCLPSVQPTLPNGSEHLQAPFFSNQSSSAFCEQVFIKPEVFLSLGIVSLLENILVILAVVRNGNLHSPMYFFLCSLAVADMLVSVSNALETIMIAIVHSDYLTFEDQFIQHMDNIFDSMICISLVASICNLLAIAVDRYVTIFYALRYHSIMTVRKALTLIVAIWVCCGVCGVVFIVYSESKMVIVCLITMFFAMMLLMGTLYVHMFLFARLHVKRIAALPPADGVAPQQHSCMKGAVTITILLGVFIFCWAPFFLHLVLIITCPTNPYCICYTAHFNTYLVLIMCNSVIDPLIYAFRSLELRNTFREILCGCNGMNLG

Row | Molecule | IC50 (Cytochrome P450 1A2) | Ki (Cytochrome P450 1A2) | IC50 [1] | Ki [1] | IC50 ([2]; jurkat) | Ki ([2]; jurkat) | IC50 [3] | Ki [3] | IC50 [4] | Ki [4] | IC50 (Cytochrome P450 2E1) | Ki (Cytochrome P450 2E1) | IC50 (D(4) dopamine receptor) | Ki (D(4) dopamine receptor) | IC50 (Melanocortin receptor 3) | Ki (Melanocortin receptor 3) | IC50 ([2]; read-out: IC50) | Ki ([2]; read-out: Ki)
1 | TRANSPLATIN | Not Active | Not Active | Not Active | Not Active | Not Active | Not Active | Not Active | Not Active | Not Active | Not Active | Not Active | Not Active | Not Active | Not Active | Not Active | Not Active | – | –
2 | C[C@@](Cc1ccc(O)c(O)c1)(NN)C(=O)O.O [CARBIDOPA] | Not Active | Not Active | Not Active | – | Not Active | – | Not Active | – | Not Active | – | Not Active | Not Active | Not Active | – | Not Active | – | – | –
3 | ZIRCONIUM(IV) CHLORIDE | Not Active | Not Active | Not Active | Not Active | Not Active | Not Active | Not Active | Not Active | Not Active | Not Active | Not Active | Not Active | Not Active | Not Active | Not Active | Not Active | – | –
4 | CN(C)C(=O)C(CCN1CCC(O)(c2ccc(Cl)cc2)CC1)(c1ccccc1)c1ccccc1 [LOPERAMIDE] | Not Active | Not Active | Not Active | – | – | – | Not Active | – | Not Active | – | Not Active | Not Active | Not Active | – | Not Active | – | 628 nM | 264 nM
5 | O=C(O)c1ccccc1O [SALICYLIC ACID] | Not Active | Not Active | Not Active | – | Not Active | – | Not Active | – | Not Active | – | Not Active | Not Active | Not Active | – | Not Active | – | – | –
